A melting point compilation (Tetko et al.)

Compound	melting point [°C]
O=[N+]([O-])c1ccccc1N1CCCCC1	77 to 79
Brc1cccc(Oc2ccccn2)c1	63 to 64
O=C1c2ccccc2OC(CCCl)N1O (stereo not given)	114 to 116
CC1(C)CC(=O)OC(=O)C1	122 to 126
O=C1OC(=O)C2CCCCC12 (stereo not given)	32
O=C(Nc1ccc(C=Cc2ccc(NC(=O)c3ccccc3)cc2)cc1)c1ccccc1	352
CCCCOCCOP(=O)(OCCOCCCC)OCCOCCCC	-70
CC(=O)NC(CCC(=O)O)C(=O)O (stereo not given)	199
COC(=O)C(c1ccccc1)c1ccccc1	60
O=C(O)c1cc(S(=O)(=O)O)ccc1O	120
O=C(O)c1csnn1	233 to 235
N#CCn1cnc(Cl)c1Cl	95 to 99
COC(=O)c1cc(OC)c(O)c(OC)c1	106
O=c1[nH]cnc2c1ncn2C1CC(O)C(CO)O1 (stereo not given)	250
O=[N+]([O-])c1ccc(-c2nnc3n2NC(c2ccco2)S3)cc1 (stereo not given)	210
NCc1cc(C(F)(F)F)cc(C(F)(F)F)c1	57
COC(=O)C1CC2(C(=O)OC)C=CC1C2 (stereo not given)	38
N#Cc1cc(I)ccc1F	72
CC(C)(C)OC(=O)N1CCN(C(=O)OCC2c3ccccc3-c3ccccc32)CC1C(=O)O (stereo not given)	156 to 158
COC(=O)CC(=O)OC(C)(C)C	-10
Cc1c(C)c2c(c(C)c1O)CCC(C)(CCCC(C)CCCC(C)CCCC(C)C)O2 (stereo not given)	2.5 to 3.5
Cn1ccnc1C=O	35 to 39
O=S(=O)(Cl)c1c(Cl)cc(Br)cc1Cl	45
O=c1[nH]c2ccccc2n1CCCN1CCN(C(c2ccccc2)c2ccccc2)CC1	154
OC1CCN(Cc2ccccc2)CC1	62
COc1ccccc1C(N)=O	129

Compound	melting point [°C]
CC1(C)CC(=O)c2c(C(=O)c3ccc(Cl)cc3)noc2C1	126
O=C(Cl)c1cccc2ccccc12	26
Cn1nnc2c1ccc(=O)n2C1OC(CO)C(O)C1O (stereo not given)	211
ClC(Cl)(Br)C(Cl)(Cl)Br	220 to 222
Clc1c(Cl)c(Cl)c(C(Cl)Cl)c(Cl)c1Cl	120
NC(CCCC(F)(F)F)C(=O)O (stereo not given)	272 to 274
Clc1cccc2c(Cl)cccc12	107
CC(=O)c1cnccn1	77
CNC(=O)Oc1cccc2ccccc12	142
C/C(=N\N=C1C(=O)Nc2ccccc21)c1c(O)c2ccccc2n(-c2ccccc2)c1=O	267
CC(C)(C)NSc1nc2ccccc2s1	108
CC(C)CC#N	-101
O=C(O)Cc1ccc(F)c(Cl)c1	57
Nc1ccc(OC(F)(F)F)c(Cl)c1	30
Cc1ccc(NC(=S)Nc2ccc(C)cc2)cc1	183
CCn1cc(C(=O)O)c(=O)c2cc(F)c(N3CCNCC3)cc21	228
Cc1ccc(N=CN(C)C=Nc2ccc(C)cc2C)c(C)c1	86
NNCc1ccccc1	26
CC(C)N(C(=O)CCl)c1ccccc1	77
COc1cc(NC(=S)NN)cc(OC)c1OC	178 to 179
CCS(=O)(=O)c1ccccc1	42
Brc1ccc(Oc2ccc(Br)cc2Br)cc1	64 to 64.5
CCN(CC)CCNC(=O)c1cc(Cl)c(N)cc1OC	146
O=C(CCBr)N1CCN(C(=O)CCBr)CC1	106
C=CC(=O)OCCCCCC	-45
O=C(CBr)c1ccc2c(c1)OCCCO2	78 to 80

Compound	melting point [°C]
S=C=Nc1ccc(N2CCOCC2)cc1	84 to 85
CCN(CC)C(=O)C(Cl)=C(C)OP(=O)(OC)OC	-45
CCOC(=O)c1cc(C)n(-c2cc(C)n(C)n2)n1	72
CCCCCCCCCCCCCCCCCCI	34
O=C(Cl)c1cccc2ccsc12	84 to 86
CCOc1ccc(OCC)c(N)c1	85
CC=C(C)C(=O)OC1CCN2CC=C(COC(=O)C(O)(C(C)OC)C(C)(C)O)C12 (stereo not given)	97
NC(=S)Nc1cccc(Cl)c1	137 to 138
COC(=O)c1ccc(C)cc1C	-2
COc1cc(C(=O)O)c([N+](=O)[O-])cc1OC	195 to 197
NC(=O)NN=CC(=O)c1cc(C(=O)C=NNC(N)=O)cc(C(=O)C=NNC(N)=O)c1	> 300
N#CCC(=O)N1CCOCC1	87 to 89
N#Cc1ccc(N2N=N2)cc1	70
Cc1cnnc2c1-c1nonc1CC2	155 to 158
O=C(Nc1ccc(Oc2ccc(Cl)cc2)c(Cl)c1)c1cc(I)cc(I)c1O	169
Cc1ccc(S(=O)(=O)NC(=O)NN2CCCCCC2)cc1	170
c1cnc2nc[nH]c2c1	148
N#Cc1cnc2ccccc2c1	109
C[Si](N[Si](C)(c1ccccc1)c1ccccc1)(c1ccccc1)c1ccccc1	91
CCCCc1cc2c(O)c(C(=O)OC)cnc2cc1OCc1ccccc1	288
Brc1cc(Br)c(Br)c(Br)c1Br	160
COc1c(F)cc(Br)cc1[N+](=O)[O-]	55
CC1CCC(C(C)C)C(OC(=O)C(=O)C=Cc2ccccc2)C1 (stereo not given)	45.5
COC(=O)c1ccccc1C(=O)O	83
O=S(=O)(Cl)c1ccc(N2CCOCC2)nc1	118

The remaining lines, values ahead:

melting point [°C]	Compound
124	CCCCCC(=O)OC1(C(C)=O)CCC2C3CCC4=CC(=O)CCC4C3CCC21C (stereo not given)
82 to 83	COC(=O)c1cc(Cl)nc(Cl)c1
330	Oc1ncc(O)c(O)n1
218	CC(=O)NC(N)=O
-74.2	CC=CC=C(C)C
209	O=C(c1ccccc1)C1CNc2cc3c(cc2C1)CC(C(=O)c1ccccc1)CN3 (stereo not given)
75	c1ccn2cccc2c1
94	O=C(CBr)c1cccc([N+](=O)[O-])c1
210	CC12CCC(C(CCC3C(=O)C4(C)CCC3C4(C)C)C1=O)C2(C)C (stereo not given)
43	CC1CCC(C(C)C)C(OC(=O)C(Cc2ccccc2)Cc2ccccc2)C1 (stereo not given)
107	C=C(C)CNc1ccc(C(C)C(=O)O)cc1 (stereo not given)
118 to 122	Nc1ccccc1S(=O)(=O)c1ccccc1
238	C=C1C(=O)C23C4CC5C(C)(C)CCC(OC(C)=O)C5(C(=O)O4)C2C(OC(C)=O)CC1C3O (stereo not given)
54 to 55	OCc1cccnc1Cl
< 25	CC(=O)C=CC1C(C)=CCC(C)C1(C)C (stereo not given)
140	Nc1ccc(C(=O)O)c(N)c1
70	Oc1cccc2c1CCCC2
235	Nc1ncc(Cl)cn1
37 to 40	CN(C)CCOc1ccccc1N
162	NC(=S)NC1CCCCC1
175 to 179	Nc1c(F)c(F)c(-c2c(F)c(F)c(N)c(F)c2F)c(F)c1F
136	CC(O)Cn1cnc2c1c(=O)n(C)c(=O)n2C (stereo not given)
127	Cc1cc([N+]([O-])=Nc2ccccc2)c(C(C)C)cc1[N+]([O-])=Nc1ccccc1
52	NCCCCCCCCN
300	O=C1c2ccccc2C(=O)c2c(Nc3cccc4c3C(=O)c3ccccc3C4=O)cccc21
57 to 61	CCOC(=O)c1ccc(Cl)c([N+](=O)[O-])c1
92 to 96	CC(C)(C)OC(=O)N[C@@H](Cc1ccccc1F)C(=O)O

melting point [°C]	Compound
190	NS(=O)(=O)c1ccccc1Cl
304 to 305	Oc1n[nH]c2nc3ccccc3nc12
203 to 205	CCN(CC)c1ccc2nc3c4ccccc4c(=O)cc-3oc2c1
56	O=[N+]([O-])c1cc(F)c(Br)cc1F
-74.7	CCCC#CCCCCCC
78	COC1CCC(CC(=O)O)CC1 (stereo not given)
140	Nc1cc(F)ccc1O
50 to 51	OCc1ccccc1COc1ccccc1
185	O=[N+]([O-])c1cc(C=NNc2ccccc2)ccc1C=NNc1ccccc1
99	COc1ccccc1C(=O)Oc1ccc(C(=O)/C=C/c2ccc(N(C)C)cc2)cc1
79.8	Cc1ccc(Nc2ccc(C)cc2)cc1
79 to 80	O=C(Cl)c1cccnc1Oc1ccc(Cl)cc1
52 to 54	COC(=O)c1ccc(C(=O)OC)c(Br)c1
144 to 145	CC(C)CCC[C@@H](C)[C@H]1CC[C@H]2[C@@H]3CC=C4C[C@@H](OCOc5ccc(Cl)cc5)CC[C@]4(C)[C@H]3CC[C@]12C
134	COC(=O)CCc1ccc2c(c1)CCC(=O)N2
-30	CN(C)C(=N)N(C)C
164	O=C(NNc1ccccc1)C1CCCCC1
177 to 178	CC(=O)OC1C2=C(C(=O)C(O)C3(CC3C)C2=O)C2(C)CCC(C)=C(C)C2C1O (stereo not given)
52	O=[N+]([O-])c1ccc(OS(=O)(=O)C(F)(F)F)cc1
172	CC(=O)N[C@@H](Cc1ccccc1)C(=O)O
168 to 172	CC1=CS(=O)(=O)c2ccc(Cl)cc21
137	COc1cc(C2Nn3c(nnc3-c3ccccc3OC)S2)ccc1O (stereo not given)
19	CCCCCCCCCCC(C)O (stereo not given)
157	CC1NC(=O)NC1CCCCCC(=O)O (stereo not given)
-33	CC(C)Oc1ccccc1
104 to 107	CC(C)Cc1ccc(C(=O)C=Cc2cccc([N+](=O)[O-])c2)cc1
